The source made the active and inactive calls.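 The calls were made as follows: active = maximal inhibition of USP17 at or above 30% in the confirmation dose-response, a value not among the printed readouts; inactive = the rest.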 Bounds are passed on as bounds.

This assay deals with Ubiquitin carboxyl-terminal hydrolase 17-like protein 5 (Homo sapiens) (UniProt A8MUK1). Briefly: ubiquitin-specific protease 17 inhibitors, concentration series, biochemical, verification of primary actives (AID 1645864). The conditions noted are these: purified USP17, ubiquitin-rhodamine cleavage fluorescence, 3 h.
Chain of Ubiquitin carboxyl-terminal hydrolase 17-like protein 5 (Homo sapiens) (A8MUK1 whole entry, looked up): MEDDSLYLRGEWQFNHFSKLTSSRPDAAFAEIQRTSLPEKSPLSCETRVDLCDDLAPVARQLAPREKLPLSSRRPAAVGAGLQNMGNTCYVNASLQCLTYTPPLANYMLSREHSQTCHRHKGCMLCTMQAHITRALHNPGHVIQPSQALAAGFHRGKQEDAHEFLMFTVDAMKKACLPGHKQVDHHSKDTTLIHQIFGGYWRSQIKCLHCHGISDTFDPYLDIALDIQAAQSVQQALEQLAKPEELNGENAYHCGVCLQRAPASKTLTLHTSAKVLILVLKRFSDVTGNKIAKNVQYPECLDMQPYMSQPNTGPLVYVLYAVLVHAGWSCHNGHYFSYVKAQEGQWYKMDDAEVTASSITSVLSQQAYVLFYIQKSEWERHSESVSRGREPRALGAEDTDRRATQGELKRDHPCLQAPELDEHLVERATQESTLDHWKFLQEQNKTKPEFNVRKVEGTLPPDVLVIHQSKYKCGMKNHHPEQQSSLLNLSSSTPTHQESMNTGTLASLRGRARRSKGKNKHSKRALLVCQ
As to `O=C(NCCN1CCCC1)C1CCN(c2cnc(N3CCCCC3)nc2)CC1`, the IC50 is > 50 µM (inactive).

On to `COc1ccc(NS(=O)(=O)c2cc(NC(=O)CCc3nc4ccccc4s3)ccc2C)cc1`, for which the IC50 was 28.1 µM.

Consider `O=C(c1cn(-c2cccc(F)c2)nn1)N1CCc2ccccc2C1`, for which the IC50 is 18.5 µM.

Turning to `CC(=O)N1Cc2ccccc2CC2(CCCN(CC3CCOCC3)C2)C1` (centres undefined), the IC50 is > 50 µM (inactive).

For the compound `O=C1c2ccccc2NC2(C(=O)Nc3ccc(Br)cc32)N1c1ccccc1` (centres undefined), the IC50 is > 50 µM (inactive).

On to `Cc1ccc(-n2c(-c3ccccc3)cn3c4c(=O)[nH]c(=O)n(C)c4nc23)cc1C`, for which the IC50 is 0.289 µM.

For `Cc1ccc(NC(=O)CNC(=O)c2cc3ccccc3o2)cc1`, the IC50 was 14.6 µM.

Consider `CCC(C)c1ccc(-c2csc(Cn3c(CN4CCN(C)CC4)nc4ccccc4c3=O)n2)cc1` (centres undefined), for which the IC50 is 3.29 µM.

Consider `COc1c(O)cc(CC(=O)O)c(C(C)=O)c1O`, for which the IC50 is 11.1 µM.

With `O=C(OC1CSc2nc3ccccc3n2C1)c1ccc([N+](=O)[O-])o1` (centres undefined), the IC50 is 30.5 µM.

As for `COc1ccc(CNC(=O)C(C)n2nc(-c3ccco3)c(-c3cc(C)no3)cc2=O)cc1` (centres undefined), the IC50 was 25.1 µM.

In the case of `Cc1ccc(N2CC(c3nc4ccccc4n3CCCCOc3ccccc3)CC2=O)cc1` (centres undefined), the IC50 is > 50 µM (inactive).

Regarding `CC(C)N1C[C@@H]2C[C@H](NS(=O)(=O)c3cccc(C#N)c3)CN2Cc2ccccc21`, the IC50 is > 50 µM (inactive).

For `COc1cccc(NC(=O)c2nnn(-c3ccccc3)n2)c1`, the IC50 is > 50 µM (inactive).

Take `CC(C)(C)C(=O)C1C2C(=O)N(c3ccc4c(c3)OCO4)C(=O)C2C2c3ccccc3C=CN12` (centres undefined): the IC50 is > 50 µM (inactive).

For the compound `O=C(c1cscn1)N1CCC2(CC1)CC1(CO2)Nc2ccccc2-n2cccc21` (centres undefined), the IC50 is > 50 µM (inactive).

Regarding `COc1ccccc1NS(=O)(=O)c1cccc(NC(=O)CCc2nc3ccccc3s2)c1`, the IC50 is 4.09 µM.

With `Cc1c(C)n(-c2ccccc2)c2ncn(CC(=O)NCCCc3ccccc3)c(=O)c12`, the IC50 was 34.4 µM.

Consider `COc1ccc(OC)c(NC(=O)CSc2nc(C)nc3c2oc2ccccc23)c1`, for which the IC50 was 2.54 µM.

In the case of `Cc1cc2c(cc1C)NC(CC(=O)Nc1ccc(O)cc1)C(=O)N2` (centres undefined), the IC50 is 24.1 µM.

As to `O=C(c1ccc(COc2cccc3ccccc23)o1)N1CCC(Cc2ccccc2)CC1`, the IC50 was > 50 µM (inactive).

Regarding `COc1cc(C)c2c(=O)c3c(oc2c1)C(=O)c1c(O)c(OC)cc(O)c1C3=O`, the IC50 is 0.609 µM.

For `Cc1cccc(NC(=O)Cn2cnc(-c3noc(-c4ccccc4)n3)c2)c1C`, the IC50 was 1.35 µM.

Consider `CC1CCN(c2nc(F)c3c(c2F)S(=O)(=O)CCN3Cc2cccnc2)CC1`, for which the IC50 is > 50 µM (inactive).

Take `COc1ccc(CCNc2c(-c3ccccc3O)nc3cnccn23)cc1OC`: the IC50 was > 50 µM (inactive).

Regarding `COc1ccc(NC(=O)Cn2cc(C(=O)c3ccc(F)cc3)c(=O)c3cc(C)ccc32)cc1`, the IC50 was 24 µM.

As to `COc1ccc(OC)c(CCNC(=O)CCC2=NS(=O)(=O)c3ccc(C(F)(F)F)cc3N2)c1`, the IC50 is 26.9 µM.

As for `Cc1ccc(-c2cn(CC(=O)N3CCN(c4ccccn4)CC3)c(=O)o2)cc1`, the IC50 was 13 µM.

Turning to `O=C(Nc1ccc(N2CCOCC2)cc1)c1cc(=O)[nH]c2ccccc12`, the IC50 was 31 µM.

As for `CCCCc1nc2sc3c(SCC(=O)Nc4cccc(C)c4)ncnc3c2c2c1CCC2`, the IC50 is 14 µM.

In the case of `Cc1ccc(S(=O)(=O)N2CCCCC2)cc1NC(=O)Cc1cccc(F)c1`, the IC50 was > 50 µM (inactive).

`O=C(Nc1cc(F)c2nc(N3CCOCC3)ccc2c1)c1ccc(Br)o1`: the IC50 was 42.2 µM.

Turning to `O=C(Nc1ccc2c(c1)OCCO2)C1CCN(C(=O)c2ccccc2)CC1`, the IC50 was > 50 µM (inactive).

Consider `CC1=C(Cn2c3cccc(=O)c-3nc3ccccc32)CCC(C)(C)C1`, for which the IC50 was 1.52 µM.

Turning to `CC1(C)Cc2nc3sc4c(=O)n(CC(=O)NCc5ccccc5)cnc4c3cc2CO1`, the IC50 was 44.9 µM.

On to `COc1ccc(NC(=O)c2cc(-c3cccnc3)n[nH]2)cc1Cl`, for which the IC50 was 11.1 µM.

On to `N#Cc1cccnc1N1CCN(C(=O)Nc2cccc3ccccc23)CC1`, for which the IC50 is 29.2 µM.

Consider `Cc1ccc(Nc2nc(Nc3cccc(Cl)c3)nc3nccnc23)cc1`, for which the IC50 was > 50 µM (inactive).

As for `O=C(COc1ccc2oc3c(c2c1)CCCC3)Nc1ccccn1`, the half-maximal inhibitory concentration (IC50) is 25.4 µM.

Regarding `Cc1ccc2[nH]c3c(=O)n(CC4CCCO4)cnc3c2c1` (centres undefined), the IC50 was 21.5 µM.

Take `CCOc1ccc2c(c1)c(=O)c(C(=O)c1ccccc1)cn2CC(=O)Nc1ccccc1`: the IC50 was 5.29 µM.

Consider `CN1C(=O)COc2ccc(NC(=O)c3cc(-c4ccccc4)on3)cc21`, for which the IC50 was 9.45 µM.

Consider `Cc1ccc2[nH]c(=O)c(-c3nc4ccc(C)cn4c3NCc3ccc(F)cc3)cc2c1`, for which the IC50 was 1.98 µM.

`COc1ccc(C2SCC(=O)Nc3c2c(=O)[nH]n3C2CCCCC2)cc1` (centres undefined): the IC50 is 28.7 µM.

Consider `CC1=C(C)C(N(c2ccccc2)c2ccccc2)N(CCC(C)C)C1=O` (centres undefined), for which the IC50 was 19.2 µM.

For `Cc1cc(NC(=O)c2[nH]nc3c2CCc2ccccc2-3)no1`, the concentration for half-maximal inhibition (IC50) was 3.28 µM.

For `COc1ccc(CCNC(=O)CCCCn2c(=O)c3ccccc3n(Cc3cccc(Cl)c3)c2=O)cc1OC`, the IC50 is 35.3 µM.

Take `O=C(CCc1nnc2n(Cc3ccccc3)c(=O)c3ccccc3n12)N1CCN(c2ccccn2)CC1`: the IC50 was 11.3 µM.

As for `COc1ccc(COc2ccc3c(C)c(CC(=O)N4CC[C@@]5(O)CCCC[C@H]5C4)c(=O)oc3c2)cc1`, the IC50 was 2.55 µM.

On to `COc1ccccc1-c1nc2c3c(C)c(C)n(Cc4cccnc4)c3ncn2n1`, for which the IC50 is > 50 µM (inactive).

As to `c1ccc(CN2CCN(c3nc4ccccc4n4nnnc34)CC2)cc1`, the IC50 is > 50 µM (inactive).

`O=C(Cn1cncc(C(=O)NC2CCCC2)c1=O)Nc1cccc(F)c1`: the IC50 is 19 µM.

Regarding `Cc1nn(C)c2c1[C@@H](c1ccc(F)c(Br)c1)[C@H](NC(=O)c1ccccc1)C(=O)N2`, the IC50 is > 50 µM (inactive).

Consider `Cc1ccc(Cn2cc(-c3noc(-c4ccc[nH]4)n3)nn2)cc1`, for which the IC50 was 21.2 µM.

As to `O=C(Cc1ccccc1F)Nc1nc(-c2ccco2)c(-c2ccco2)s1`, the IC50 is > 50 µM (inactive).

For the compound `N#Cc1ccccc1Cn1c(=O)n(CCCCC(=O)NCc2ccco2)c(=O)c2ccccc21`, the IC50 is 46.3 µM.

Take `O=C(COc1nsnc1N1CCOCC1)Nc1ccc(F)c(F)c1`: the IC50 was > 50 µM (inactive).

As for `Cc1ccc(NC(=O)c2nnn(-c3ccccc3)n2)cc1F`, the IC50 was > 50 µM (inactive).

Consider `c1coc(CNc2nc3ccccc3n3nnnc23)c1`, for which the IC50 is > 50 µM (inactive).

Regarding `Nc1ncnc(SCc2ccc(Cl)cc2)n1`, the IC50 is 27.1 µM.

Consider `COc1ccc(CC(=O)Nc2cccc(-c3nc4ncccc4o3)c2)cc1OC`, for which the IC50 was > 50 µM (inactive).

On to `CCn1ccc2c(cc(C(=O)Nc3ccccc3F)n2C)c1=O`, for which the IC50 was > 50 µM (inactive).

Consider `CC(=O)Nc1ccc(NC(=O)c2cc(-c3cc(C)cc(C)c3O)n[nH]2)cc1`, for which the IC50 is 16.3 µM.

Regarding `CN1C(=O)[C@@]23C[C@]4([C@@]56C[C@]78SS[C@](CO)(C(=O)N7[C@@H]5Nc5ccccc56)N(C)C8=O)c5ccccc5N[C@@H]4N2C(=O)[C@]1(CO)SS3`, the IC50 is > 50 µM (inactive).

Usually IC50 stands for the concentration that inhibits the measured activity by half.

Source of the values: PubChem BioAssay AID1645864 (Buhrlage Lab, Dana-Farber Cancer Institute and Novartis …, 2021).
